Paper PMC9620261 (Journal of Medicinal Chemistry, 2022)
Like-named read-outs stand apart in the source and are kept apart here.

Tests used:
[1] = system: D423 (ENO1–/–) glioma cells; assay: In vitro cytotoxicity of prodrugs, three-cell line assay
[2] = 20% D2O, 31P NMR; for hydrolysis in human serum/plasma: 80% human plasma/serum
[3] = system: LN319 (ENO1+/+) glioma cells; assay: cells; details: LN-319, 144 h, read-out: IC50 LN319 (ENO1+/+), 6 day treatment
[4] = system: ENO1–/– intracranial orthotopic tumors; details: cited from earlier work; for effect on ENO1–/– intracranial orthotopic tumors: mice, 6: 10 mg/kg IV and IP, 5: 150 mg/kg IV and 100 mg/kg IP
[5] = system: D423 ENO1 (ENO1-isogenic rescue) glioma cells; assay: In vitro cytotoxicity of prodrugs, three-cell line assay
NCI-60 cell line panel = type: cell-based; details: 10 μM, 24 h
[6] = 80% DMEM, 20% D2O, 31P NMR
[7] = system: LN319 (ENO1+/+) glioma cells; details: read-out: IC50 LN319 (ENO1+/+); 6 day treatment
[8] = Glioma cell, 144 h, read-out: IC50 D423 (ENO1–/–), 6 day treatment
[9] = Glioma cell, 144 h, read-out: IC50 D423 (ENO1–/–), 1% O2 (hypoxic), 6 days
[10] = read-out: IC50 D423 (ENO1–/–), 6 day treatment

For `CC(C)(C)C(=O)OCOP(=O)(NCc1ccccc1)C1CCCN(O)C1=O` (stereo not drawn) [20b], which IC50 [1, 8] is on record?
The IC50 was 0.243 µM.

For `CC(C)OC(=O)[C@H](C)NP(=O)(OCOC(=O)C(C)(C)C)C1CCCN(O)C1=O` (stereo partly drawn) [20o], which IC50 [1, 8] is on record?
Its IC50 is 0.202 µM.

Which “hydrolysis in human serum/plasma” value [2] does the source give for `CC(C)OC(=O)[C@H](C)N[P@](=O)(CO[C@H](C)Cn1cnc2c(N)ncnc21)Oc1ccccc1` [TAF, tenofovir alafenamide, reference compound] here?
Its value is “occurs rapidly”.

Which IC50 [3] does the source give for `O=C1C(P(=O)(O)O)CCCN1O` (stereo not drawn) [compound 5] here?
Its IC50 is greater than 300 µM.

And the “effect on ENO1–/– intracranial orthotopic tumors” value [4]?
The value was “profound tumor regression”.

Which IC50 [1, 9] does the source give for `CC(C)(C)C(=O)OCOP(=O)(OCOC(=O)C(C)(C)C)C1CCCN(O)C1=O` (stereo not drawn) [compound 6, POMHEX] here?
The IC50 was 0.201 µM.

What about the IC50 ([1]; Glioma cell, 144 h, read-out: IC50 D423 (ENO1–/–), 21% O2, 6 days) of the same molecule?
Its IC50 is 0.079 µM.

What about the “hydrolysis in human serum/plasma” value [2] of the same molecule?
Its value is “rapidly hydrolyzed to the mono-POM ester intermediate”.

And the drug-related adverse events ([4]; 50 day in vivo evaluation)?
Its drug-related adverse events is “no drug-related adverse events were observed”.

And the “effect on ENO1–/– intracranial orthotopic tumors” value [4]?
The value was “profound tumor regression”.

Which “time prodrug remains stable/intact in human serum/plasma” value ([2]; 80% human plasma, 37 °C) does the source give for `CC(C)OC(=O)[C@H](C)NP(=O)(Oc1ccccc1)C1CCCN(O)C1=O` (stereo partly drawn) [compound 17] here?
The value was “over 9 h”.

And the “hydrolysis in human serum/plasma” value [2]?
Its value is “incomplete even after 336 h”.

Which IC50 [1, 9] does the source give for `CC(=O)ON1CCCC(P(=O)(NCc2ccccc2)OCc2ccc([N+](=O)[O-])o2)C1=O` (stereo not drawn) [compound 24] here?
The IC50 was 0.136 µM.

What does the source list for `O=C1C(P(=O)(NCc2ccccc2)Oc2ccc(F)cc2)CCCN1O` (stereo not drawn) [compound 26, 4-Fluorophenyl N-Benzyl-P-(1-hydroxy-2-oxopiperidin-3-yl)phosphonamidate]?
IC50 ([5]; Glioma cell, 144 h, read-out: IC50 D423 ENO1 (ENO1-tg), 6 day treatment): > 100 µM; IC50 [1, 8]: > 100 µM

With `CCCCCCCCCCCCCCCCOCCCOP(=O)(O)C1CCCN(O)C1=O` (stereo not drawn) [compound 28] as the molecule, how does the “Average % Growth: Melanoma” value (NCI-60 cell line panel) read?
Its value is 5%.

For `CC(C)C(=O)ON1CCCC(P2(=O)OCc3ccccc3O2)C1=O` (stereo not drawn) [compound 30, 3-(2-Oxido-4H-benzo[d][1,3,2]dioxaphosphinin-2-yl)-2-oxopiperidin-1-yl Isobutyrate], which “time by which no intact prodrug is present in cell culture media” value [6] is on record?
The value was no more than 3 h.

And the “time by which no intact prodrug is detectable in human plasma/serum” value ([2]; 80% human plasma, 37 °C)?
The value was no more than 3 h.

With “Bis(cyanomethyl)(1-hydroxy-2-oxopiperidin-3-yl)phosphonate [compound 29]” as the molecule, how does the IC50 [7] read?
The IC50 was greater than 100 µM.

What about the IC50 [1, 10] of the same molecule?
Its IC50 is greater than 100 µM.

And the “t1/2 in human plasma” value ([2]; 80% human plasma, 37 °C)?
Its value is “approximately 10 h”.

Which IC50 ([5]; read-out: IC50 D423 ENO1 (ENO1-tg), 6 day treatment) does the source give for “Cyanomethyl N-Benzyl-P-(1-hydroxy-2-oxopiperidin-3-yl)phosphonamidate [compound 25]” here?
Its IC50 is greater than 70 µM.

And the IC50 [1, 10]?
Its IC50 is 6.68 µM.

And the IC50 ([1]; read-out: IC50 in D423 cells, 6 day treatment)?
The IC50 was roughly 7 µM.
